Earlier results on 24 molecules are cited in US20110245283A1, “Methods for predicting the response to statins” (priority 2009, published 2011).

Like-named read-outs stand apart in the source and are kept apart here.

The conditions of the data set: cited from earlier work.

Take `CC(C)(Oc1ccc(CCNC(=O)c2ccc(Cl)cc2)cc1)C(=O)O` [Bezafibrate]: the “Increased risk of toxicity or reduced statin effectiveness” value reads like this: (with Atorva) “(+)”; (with Fluva) “(+)”; (with Lova) “(+)”; (with Prava) “(+)”; (with Simva) “(+)”. The “Severity of the interaction” value runs as follows: (with Atorva) 3; (with Fluva) 3; (with Lova) 3; (with Prava) 3; (with Simva) 3.

Consider `CC(C)CN(C[C@@H](OP(=O)(O)O)[C@H](Cc1ccccc1)NC(=O)O[C@H]1CCOC1)S(=O)(=O)c1ccc(N)cc1` [Fosamprenavir], for which the “Increased risk of toxicity or reduced statin effectiveness” value by setting is: (with Atorva) “(+)”; (with Lova) “(+)”; (with Simva) “(+)”. Moreover, the “Severity of the interaction” value runs as follows: (with Atorva) 3; (with Lova) 3; (with Simva) 3.

As to `O=C(O)c1cccnc1` [Niacin], the “Increased risk of toxicity or reduced statin effectiveness” value reads like this: (with Atorva) “(+)”; (with Fluva) “(+)”; (with Lova) “(+)”; (with Prava) “(+)”; (with Rosuva) “(+)”; (with Simva) “(+)”. Further, the “Severity of the interaction” value runs as follows: (with Atorva) 3; (with Fluva) 2; (with Lova) 3; (with Prava) 2; (with Rosuva) 3; (with Simva) 3.

On to `O=C1NC(=O)C(c2ccccc2)(c2ccccc2)N1` [Phenytoin], for which the “Severity of the interaction” value reads like this: (with Atorva) 2; (with Fluva) 2; (with Simva) 2. For the setting “with Fluva”, the “Increased risk of toxicity or reduced statin effectiveness” value is on record as “(+)”.

As to `CCc1nn(CCCN2CCN(c3cccc(Cl)c3)CC2)c(=O)n1CCOc1ccccc1` [Nefazodone], the “Increased risk of toxicity or reduced statin effectiveness” value by setting is: (with Atorva) “(+)”; (with Lova) “(+)”; (with Prava) “(+)”; (with Simva) “(+)”. Further, the “Severity of the interaction” value was 3 (with Atorva), 3 (with Lova), 2 (with Prava) and 3 (with Simva).

For `Cc1ccc(C)c(OCCCC(C)(C)C(=O)O)c1` [Gemfibrozil], the “Increased risk of toxicity or reduced statin effectiveness” value (with Atorva) is “(+)”; the “Increased risk of toxicity or reduced statin effectiveness” value (with Fluva) is “(+)”; the “Increased risk of toxicity or reduced statin effectiveness” value (with Lova) was “(+)”; the “Increased risk of toxicity or reduced statin effectiveness” value (with Prava) is “(+)”; the “Increased risk of toxicity or reduced statin effectiveness” value (with Rosuva) is on record as “(+)”; the “Increased risk of toxicity or reduced statin effectiveness” value (with Simva) is “(+)”. The “Severity of the interaction” value is 3 (with Atorva); 3 (with Fluva); 3 (with Lova); 3 (with Prava); 3 (with Rosuva); 3 (with Simva).

With `COc1ccc2nc([S@@+]([O-])Cc3ncc(C)c(OC)c3C)[nH]c2c1` [Esomeprazole], where the note is “with Atorva”, the “Increased risk of toxicity or reduced statin effectiveness” value was “(+)” and the “Severity of the interaction” value is listed as 3.

With `COc1ccc2[nH]c([S+]([O-])Cc3ncc(C)c(OC)c3C)nc2c1` (stereo not shown) [Omeprazole], where the note is “with Fluva”, the “Increased risk of toxicity or reduced statin effectiveness” value is listed as “(+)” and the “Severity of the interaction” value is 1.

With `CC(C)(C)NC(=O)[C@@H]1C[C@@H]2CCCC[C@@H]2CN1C[C@@H](O)[C@H](Cc1ccccc1)NC(=O)[C@H](CC(N)=O)NC(=O)c1ccc2ccccc2n1` [Saquinavir], the “Increased risk of toxicity or reduced statin effectiveness” value is given as “(+)” (with Atorva), “(+)” (with Lova) and “(+)” (with Simva).

With `CC(C)OC(=O)C(C)(C)Oc1ccc(C(=O)c2ccc(Cl)cc2)cc1` [Fenofibrate], the “Increased risk of toxicity or reduced statin effectiveness” value runs as follows: (with Atorva) “(+)”; (with Fluva) “(+)”; (with Lova) “(+)”; (with Prava) “(+)”; (with Simva) “(+)”.

For `CCOC(=O)C(C)(C)Oc1ccc(Cl)cc1` [Clofibrate], the “Increased risk of toxicity or reduced statin effectiveness” value is on record as “(+)” (with Atorva); “(+)” (with Fluva); “(+)” (with Lova); “(+)” (with Prava); “(+)” (with Simva). Further, the “Severity of the interaction” value is given as 3 (with Atorva); 3 (with Fluva); 3 (with Lova); 3 (with Prava); 3 (with Simva).

Take `NC(=O)N1c2ccccc2C=Cc2ccccc21` [Carbamazepine]: the “Severity of the interaction” value (with Simva) is 2.

As to `CCC[C@@]1(CCc2ccccc2)CC(O)=C([C@H](CC)c2cccc(NS(=O)(=O)c3ccc(C(F)(F)F)cn3)c2)C(=O)O1` [Tipranavir], under “with Lova”, the “Increased risk of toxicity or reduced statin effectiveness” value is on record as “(+)” and the “Severity of the interaction” value was 3. For the same molecule, where the note is “with Simva”, the “Increased risk of toxicity or reduced statin effectiveness” value is listed as “(+)” and the “Severity of the interaction” value was 3.

Take `COc1ccccc1Oc1c(NS(=O)(=O)c2ccc(C(C)(C)C)cc2)nc(-c2ncccn2)nc1OCCO` [Bosentan]: the “Severity of the interaction” value is 2 (with Atorva), 2 (with Lova) and 2 (with Simva).

Regarding `CC[C@H]1OC(=O)[C@H](C)C(=O)[C@H](C)[C@@H](O[C@@H]2O[C@H](C)C[C@H](N(C)C)[C@H]2O)[C@](C)(OC)C[C@@H](C)C(=O)[C@H](C)[C@H]2N(CCCCn3cnc(-c4cccnc4)c3)C(=O)O[C@]12C` [Telithromycin], the “Increased risk of toxicity or reduced statin effectiveness” value is on record as “(+)” (with Atorva), “(+)” (with Lova) and “(+)” (with Simva). The “Severity of the interaction” value is, setting by setting: (with Atorva) 3; (with Lova) 3; (with Simva) 3.

As to `CC(C)Nc1cccnc1N1CCN(C(=O)c2cc3cc(NS(C)(=O)=O)ccc3[nH]2)CC1` [Delavirdine], where the note is “with Atorva”, the “Increased risk of toxicity or reduced statin effectiveness” value is recorded as “(+)” and the “Severity of the interaction” value is given as 2.

Take `CCN(CC)CCS(=O)(=O)[C@@H]1CCN2C(=O)c3coc(n3)CC(=O)C[C@H](O)/C=C(C)/C=C/CNC(=O)/C=C/[C@@H](C)[C@@H](C(C)C)OC(=O)[C@@H]12` [Dalfopristin]: the “Increased risk of toxicity or reduced statin effectiveness” value reads like this: (with Atorva) “(+)”; (with Fluva) “(+)”; (with Lova) “(+)”; (with Prava) “(+)”; (with Simva) “(+)”. The “Severity of the interaction” value runs as follows: (with Atorva) 3; (with Fluva) 3; (with Lova) 3; (with Prava) 3; (with Simva) 3.

In the case of `CC[C@H]1OC(=O)[C@H](C)[C@@H](O[C@H]2C[C@@](C)(OC)[C@@H](O)[C@H](C)O2)[C@H](C)[C@@H](O[C@@H]2O[C@H](C)C[C@H](N(C)C)[C@H]2O)[C@](C)(OC)C[C@@H](C)C(=O)[C@H](C)[C@@H](O)[C@]1(C)O` [Clarithromycin], the “Increased risk of toxicity or reduced statin effectiveness” value is, setting by setting: (with Atorva) “(+)”; (with Lova) “(+)”; (with Simva) “(+)”. For the same molecule, the “Severity of the interaction” value was 3 (with Atorva), 3 (with Lova) and 3 (with Simva).

In the case of `COCC(=O)O[C@]1(CCN(C)CCCc2nc3ccccc3[nH]2)CCc2cc(F)ccc2[C@@H]1C(C)C` [Mibefradil], the “Increased risk of toxicity or reduced statin effectiveness” value (with Atorva) is recorded as “(+)”; the “Increased risk of toxicity or reduced statin effectiveness” value (with Fluva) is “(+)”; the “Increased risk of toxicity or reduced statin effectiveness” value (with Lova) is “(+)”; the “Increased risk of toxicity or reduced statin effectiveness” value (with Prava) is “(+)”; the “Increased risk of toxicity or reduced statin effectiveness” value (with Simva) is “(+)”. Further, the “Severity of the interaction” value was 3 (with Atorva); 1 (with Fluva); 4 (with Lova); 1 (with Prava); 4 (with Simva).

Take `CC(=O)N1CCN(c2ccc(OCC3COC(Cn4ccnc4)(c4ccc(Cl)cc4Cl)O3)cc2)CC1` (stereo not shown) [Ketoconazole]: the “Increased risk of toxicity or reduced statin effectiveness” value (with Atorva) is given as “(+)”, the “Increased risk of toxicity or reduced statin effectiveness” value (with Lova) is listed as “(+)” and the “Increased risk of toxicity or reduced statin effectiveness” value (with Simva) is given as “(+)”. In addition, the “Severity of the interaction” value is, setting by setting: (with Atorva) 3; (with Lova) 3; (with Simva) 3.

Magaldrate: the “Severity of the interaction” value (with Rosuva) is reported as 2.

Turning to Cholestyramine, the “Severity of the interaction” value runs as follows: (with Fluva) 1; (with Prava) 2.

Turning to `O=C1NC(c2ccccc2)(c2ccccc2)C(=O)N1COP(=O)(O)O` [Fosphenytoin], the “Severity of the interaction” value reads like this: (with Atorva) 2; (with Simva) 2.

On to Pectin, for which the “Severity of the interaction” value (with Atorva) was 2; the “Severity of the interaction” value (with Fluva) is recorded as 2; the “Severity of the interaction” value (with Lova) is 2; the “Severity of the interaction” value (with Prava) was 2; the “Severity of the interaction” value (with Rosuva) is given as 2; the “Severity of the interaction” value (with Simva) was 2.
